The source of these data is patent US20080107623A1, “Inhibitors of Hepatitis C Virus” (Bristol-Myers Squibb Company, priority 2006, published 2008).

pIC50: −log10 of the molar value. Where only a bound is given, the exact number is not on record here.

Assay [1] addresses T1, human neutrophil elastase (HNE) (Homo sapiens, UniProt P08246).
T1 construct: purchased Sigma or EMDbiosciences
T1 sequence (P08246 30-267): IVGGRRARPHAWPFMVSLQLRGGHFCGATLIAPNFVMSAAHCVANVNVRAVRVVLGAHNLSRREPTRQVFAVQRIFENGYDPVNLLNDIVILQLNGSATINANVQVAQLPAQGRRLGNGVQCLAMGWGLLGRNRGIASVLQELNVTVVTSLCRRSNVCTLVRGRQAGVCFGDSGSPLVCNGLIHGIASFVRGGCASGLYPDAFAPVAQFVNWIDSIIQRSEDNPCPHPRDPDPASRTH
Briefly: Specificity assay, elastase (pNA substrate). The assay is classed as biochemical. Conditions: read-out: HLE activity in the specificity assay (IC50). The procedure:
The specificities of compounds of the present disclosure were determined against a variety of serine proteases: human neutrophil elastase (HNE), porcine pancreatic elastase (PPE) and human pancreatic chymotrypsin and one cysteine protease: human liver cathepsin B. In all cases, a 96-well plate format protocol using colorimetric p-nitroaniline (pNA) substrate or fluorometric Amino-Methyl-Coumarin (AMC) substrate, specific for each enzyme was used as described previously (PCT Patent Application No. WO 00/09543) with some modifications. All enzymes were purchased from Sigma or EMDbiosciences while the substrates were from Bachem.
Each pNA assay included a 2 h enzyme-inhibitor pre-incubation at room temperature followed by addition of substrate and hydrolysis to ˜15% conversion as measured on a Spectramax Pro microplate reader. The cathepsin B assay was initiated by adding substrate to a 10 min enzyme-inhibitor pre-incubation at room temperature, and the assay plate measured immediately using the Cytofluor Series 4000. Compound concentrations varied from 100 to 0.4 μM depending on their potency.
50 mM Tris(hydroxymethyl)aminomethane hydrochloride (Tris-HCl) pH 8, 0.5 M Sodium Sulfate (Na2SO4), 50 mM NaCl, 0.1 mM EDTA, 3% DMSO, 0.01% Tween-20 with: […]
The percentage of inhibition was calculated using the formula: [1−((UVinh−UVblank)/(UVctl−UVblank))]×100 […]

The target in assay [2] is T2, HCV NS3/4A protease complex, H77 strain (Hepatitis C virus genotype 1a, UniProt P27958, C1454S/C1711G).
T2 construct: recombinant HCV NS3/4A protease complex (amino acids 1027 to 1711) for these strains; made in house; host or cells: Escherichia coli BL21 (DE3), pET21b
T2 sequence (P27958 1027-1711 C1454S/C1711G, one chain of several): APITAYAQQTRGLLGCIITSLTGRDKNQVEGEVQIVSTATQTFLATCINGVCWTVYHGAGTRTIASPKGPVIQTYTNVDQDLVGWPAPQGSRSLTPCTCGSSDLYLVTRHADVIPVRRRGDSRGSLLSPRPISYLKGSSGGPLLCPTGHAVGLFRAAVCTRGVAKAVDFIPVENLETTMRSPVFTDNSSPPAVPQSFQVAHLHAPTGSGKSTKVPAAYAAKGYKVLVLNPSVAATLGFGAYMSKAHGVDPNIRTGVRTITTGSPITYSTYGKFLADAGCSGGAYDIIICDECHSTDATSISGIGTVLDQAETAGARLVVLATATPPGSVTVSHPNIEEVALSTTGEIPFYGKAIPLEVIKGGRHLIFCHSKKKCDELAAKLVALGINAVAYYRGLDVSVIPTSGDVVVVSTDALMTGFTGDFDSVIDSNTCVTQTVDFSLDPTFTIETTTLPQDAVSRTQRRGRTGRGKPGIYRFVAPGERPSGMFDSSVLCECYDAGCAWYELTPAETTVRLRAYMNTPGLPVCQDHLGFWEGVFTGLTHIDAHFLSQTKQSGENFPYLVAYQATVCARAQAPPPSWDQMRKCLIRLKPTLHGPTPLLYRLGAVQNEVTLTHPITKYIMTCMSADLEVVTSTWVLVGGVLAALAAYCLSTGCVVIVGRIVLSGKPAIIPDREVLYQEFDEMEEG
Briefly: FRET peptide assay to monitor HCV NS3/4A proteolytic activity (H77 strain). The assay is classed as biochemical, HCV genotype 1a. As to conditions: read-out: IC50 against NS3/4A H77 strain. The source says: (§1) HCV NS3 protease complexes, derived from the BMS strain, H77 strain or J4L6S strain, were generated, as described below. These purified recombinant proteins were generated for use in a homogeneous assay (see below) to provide an indication of how effective compounds of the present disclosure would be in inhibiting HCV NS3 proteolytic activity.
(§2) The H77 and J4L6S strains were used for production of recombinant NS3/4A protease complexes. DNA encoding the recombinant HCV NS3/4A protease complex (amino acids 1027 to 1711) for these strains were manipulated as described by P. Gallinari et al. (see Gallinari P, Paolini C, Brennan D, Nardi C, Steinkuhler C, De Francesco R. Biochemistry. 38(17):5620-32, (1999)). Briefly, a three-lysine solubilizing tail was added at the 3′-end of the NS4A coding region. The cysteine in the P1 position of the NS4A-NS4B cleavage site (amino acid 1711) was changed to a glycine to avoid the proteolytic cleavage of the lysine tag. Furthermore, a cysteine to serine mutation was introduced by PCR at amino acid position 1454 to prevent the autolytic cleavage in the NS3 helicase domain. […]

Assay [3] deals with T3, HCV NS3/4A protease complex, J4L6S strain (Hepatitis C virus genotype 1b, UniProt O92972, C1454S/C1711G).
T3 construct: recombinant HCV NS3/4A protease complex (amino acids 1027 to 1711) for these strains; made in house; host or cells: Escherichia coli BL21 (DE3), pET21b
T3 sequence (O92972 1027-1711 C1454S/C1711G, one chain of several): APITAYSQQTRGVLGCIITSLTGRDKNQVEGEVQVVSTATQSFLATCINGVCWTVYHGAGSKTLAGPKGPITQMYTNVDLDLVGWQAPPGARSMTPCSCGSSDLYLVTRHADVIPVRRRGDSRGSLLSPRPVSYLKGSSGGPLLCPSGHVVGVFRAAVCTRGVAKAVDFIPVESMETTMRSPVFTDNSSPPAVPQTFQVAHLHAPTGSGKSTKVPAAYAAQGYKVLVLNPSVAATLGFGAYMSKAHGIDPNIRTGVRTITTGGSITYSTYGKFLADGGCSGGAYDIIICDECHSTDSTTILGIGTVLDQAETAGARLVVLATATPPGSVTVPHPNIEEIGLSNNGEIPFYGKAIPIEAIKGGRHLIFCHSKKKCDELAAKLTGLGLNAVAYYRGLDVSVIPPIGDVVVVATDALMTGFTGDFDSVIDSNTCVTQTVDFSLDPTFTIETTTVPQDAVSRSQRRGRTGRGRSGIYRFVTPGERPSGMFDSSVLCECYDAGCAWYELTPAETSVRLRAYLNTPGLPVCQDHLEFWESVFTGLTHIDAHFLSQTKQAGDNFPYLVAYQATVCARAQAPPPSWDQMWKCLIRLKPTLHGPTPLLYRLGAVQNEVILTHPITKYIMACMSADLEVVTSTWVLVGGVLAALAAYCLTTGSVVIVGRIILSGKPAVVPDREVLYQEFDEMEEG
The assay can be described thus: FRET peptide assay to monitor HCV NS3/4A proteolytic activity (J4L6S strain). The assay is classed as biochemical, HCV genotype 1b. As to conditions: read-out: IC50 against NS3/4A J4L6S strain.
Description: as §1, §2

As for `COc1c(O[C@@H]2C[C@H]3C(=O)N[C@]4(C(=O)NS(=O)(=O)C5CC5)C[C@H]4/C=C\CCCCC[C@H](NC(=O)OC(C)(C)C)C(=O)N3C2)ccc2c(Cl)nccc12` [Compound 3], the pIC50 in assay [1] is below 4.60; in assay [2] it was 9.22; in assay [3], 9.33.
